According to ChEMBL document CHEMBL1687734, “Pharmacokinetics of EDP-420 after multiple oral doses in healthy adult volunteers and in a bioequivalence study” (Antimicrob Agents Chemother, 2009):

Legend:
[1] = Ratio of AUC (0 to 24 hrs) in Alveolar macrophage of healthy human to AUC (0 to 24 hrs) in healthy human plasma at 400 mg, po administered as single dose; format: ADME, organism-based; details: alveolar macrophages / plasma
[2] = Tmax in healthy human plasma at 400 mg administered once on day 1 followed by 200 mg once daily for 2 days during 3 days of treatment measured after 3 days; format: ADME, organism-based
Homo sapiens [3] = experiment: Toxicity in healthy human in 8 hrs fasted healthy human assessed as incidence of severe adverse events at 200 mg, po administered as single dose of two-100 mg capsules; format: organism-based; details: in vivo
[4] = Cmax in healthy human plasma at 400 mg administered once on day 1 followed by 200 mg once daily for 2 days during 3 days of treatment measured after 3 days; format: ADME, organism-based; design: dose 400 mg
Homo sapiens [5] = experiment: Ratio of Cmax in 8 hrs fasted healthy human plasma at 200 mg, po administered as single dose of suspension to cmax in 8 hrs fasted healthy human plasma assessed as EDP-420 9-keto level at 200 mg, po administered as single dose of suspension; format: ADME, organism-based; details: in vivo
[6] = AUC (0 to infinity) in 8 hrs fasted healthy human plasma at 200 mg, po administered as single dose of two-100 mg capsules; format: ADME, organism-based; design: dose 200 mg, route oral, time infinity
[7] = Cmax in high-fat fed healthy human plasma at 200 mg, po administered as single dose of two-100 mg capsules; format: ADME, organism-based; design: dose 200 mg, route oral
Homo sapiens [8] = experiment: Ratio of Cmax in 8 hrs fasted healthy human plasma at 200 mg, po administered as single dose of two-100 mg capsules to cmax in 8 hrs fasted healthy human plasma assessed as EDP-420 9-keto level at 200 mg, po administered as single dose of two-100 mg capsules; format: ADME, organism-based; details: in vivo
[9] = AUC (0 to last) in healthy human plasma at loading dose of 400 mg/day, po once daily for 3 days measured after 1 day; format: ADME, organism-based; design: dose 400 mg/day, time 0 - last, route oral
[10] = AUC (0 to infinity) in healthy human plasma at 400 mg administered once on day 1 followed by 200 mg once daily for 2 days during 3 days of treatment measured after 3 days; format: ADME, organism-based; design: dose 400 mg, time infinity
[11] = AUC (0 to 24 hrs) in Epithelial lining fluid of healthy human at 400 mg, po administered as single dose; format: ADME, organism-based; details: read-out: Drug uptake
[12] = Cmax in healthy human plasma at 200 mg, po once daily for 3 days measured after 1 day; format: ADME, organism-based; design: dose 200 mg, route oral
[13] = Ratio of drug concentration in Epithelial lining fluid of healthy human at 400 mg, po administered as single dose after 24 hrs to drug concentration in Epithelial lining fluid of healthy human at 500 mg, po administered as single dose after 24 hrs; format: ADME, organism-based; details: in vivo
Homo sapiens [14] = experiment: Ratio of AUC (0 to infinity) in 8 hrs fasted healthy human plasma at 200 mg, po administered as single dose of suspension to AUC (0 to infinity) in 8 hrs fasted healthy human plasma assessed as EDP-420 9-keto level at 200 mg, po administered as single dose of suspension; format: ADME, organism-based; details: in vivo
[15] = Drug concentration in Alveolar macrophage of healthy human at 400 mg, po administered as single dose after 24 hrs; format: ADME, organism-based; details: alveolar macrophages, read-out: Drug uptake
Homo sapiens [16] = experiment: Toxicity in high-fat fed healthy human assessed as changes in vital signs at 200 mg, po administered as single dose of two-100 mg capsules; format: organism-based; details: in vivo
[17] = Tmax in healthy human plasma at 200 mg, po once daily for 3 days measured after 1 day; format: ADME, organism-based
[18] = Cmax in healthy human plasma at loading dose of 400 mg/day, po once daily for 3 days measured after 1 day; format: ADME, organism-based; design: dose 400 mg/day, route oral
Homo sapiens [19] = experiment: Toxicity in healthy human in 8 hrs fasted healthy human assessed as changes in physical examinations at 200 mg, po administered as single dose of two-100 mg capsules; format: organism-based; details: in vivo
[20] = AUC (0 to last) in healthy human plasma at 200 mg, po once daily for 3 days measured after 1 day; format: ADME, organism-based; design: dose 200 mg, time 0 - last, route oral
Homo sapiens [21] = experiment: Ratio of AUC (0 to infinity)in 8 hrs fasted healthy human plasma at 200 mg, po administered as single dose of two-100 mg capsules to AUC (0 to infinity) in 8 hrs fasted healthy human plasma assessed as EDP-420 9-keto level at 200 mg, po administered as single dose of two-100 mg capsules; format: ADME, organism-based; details: in vivo
[22] = Tmax in healthy human plasma at 200 mg, po once daily for 3 days measured after 3 days; format: ADME, organism-based
[23] = Half life in high-fat fed healthy human plasma at 200 mg, po administered as single dose of two-100 mg capsules; format: ADME, organism-based
Homo sapiens [24] = experiment: Toxicity in healthy human in 8 hrs fasted healthy human assessed as changes in ECG at 200 mg, po administered as single dose of two-100 mg capsules; format: organism-based; details: in vivo
Homo sapiens [25] = experiment: Ratio of Cmax in high-fat fed healthy human plasma at 200 mg, po administered as single dose of two-100 mg capsules to cmax in high-fat fed healthy human plasma assessed as EDP-420 9-keto level at 200 mg, po administered as single dose of two-100 mg capsules; format: ADME, organism-based; details: in vivo
Homo sapiens [26] = experiment: Toxicity in healthy human in 8 hrs fasted healthy human assessed as changes in liver functions at 200 mg, po administered as single dose of two-100 mg capsules; format: organism-based; details: in vivo
Homo sapiens [27] = experiment: Toxicity in healthy human assessed as severe adverse events at 400 mg administered once on day 1 followed by 200 mg once daily for 2 days during 3 days of treatment; format: organism-based; details: in vivo
Homo sapiens [28] = experiment: Toxicity in high-fat fed healthy human assessed as changes in physical examinations at 200 mg, po administered as single dose of two-100 mg capsules; format: organism-based; details: in vivo
[29] = Half life in healthy human plasma at 400 mg administered once on day 1 followed by 200 mg once daily for 2 days during 3 days of treatment measured after 3 days; format: ADME, organism-based
[30] = Cmax in 8 hrs fasted healthy human plasma at 200 mg, po administered as single dose of suspension; format: ADME, organism-based; design: dose 200 mg, route oral
[31] = AUC (0 to last) in healthy human plasma at 200 mg, po once daily for 3 days measured after 3 days; format: ADME, organism-based; design: dose 200 mg, route oral, time 0 - last
[32] = Half life in 8 hrs fasted healthy human plasma at 200 mg, po administered as single dose of two-100 mg capsules; format: ADME, organism-based
[33] = Tmax in high-fat fed healthy human plasma at 200 mg, po administered as single dose of two-100 mg capsules; format: ADME, organism-based
Homo sapiens [34] = experiment: Toxicity in healthy human in 8 hrs fasted healthy human assessed as incidence of severe adverse events at 200 mg, po administered as single dose of suspension; format: organism-based; details: in vivo
[35] = Tmax in healthy human plasma at loading dose of 400 mg/day, po once daily for 3 days measured after 1 day; format: ADME, organism-based
Homo sapiens [36] = experiment: Toxicity in healthy human assessed as incidence of severe adverse events at 200 mg, po once daily for 3 days; format: organism-based; details: in vivo, 72 h
[37] = AUC (0 to last) in high-fat fed healthy human plasma at 200 mg, po administered as single dose of two-100 mg capsules; format: ADME, organism-based; design: dose 200 mg, time 0 - last, route oral
[38] = Ratio of AUC (0 to 24 hrs) in epithelial lining fluid of healthy human to AUC (0 to 24 hrs) in healthy human plasma at 400 mg, po administered as single dose; format: ADME, organism-based

Kp [1]: 245
Tmax [2]: 3.5 h
Cmax [4]: 514 ng/mL
Ratio (Homo sapiens [5]): 0.065
AUC(0-inf) [6]: 9030 ng·h/mL
Cmax [7]: 394 ng/mL
Ratio (Homo sapiens [8]): 0.058
AUC(0-t) at 24 h [9]: 8100 ng·h/mL
AUC(0-inf) [10]: 15100 ng·h/mL
AUC [11]: 212000 ng·h/mL
Cmax [12]: 432 ng/mL
Ratio [13]: > 72
Ratio (Homo sapiens [14]): 0.101
concentration at 24 h [15]: 68000 ng/mL
Tmax [17]: 3.5 h
Cmax [18]: 548 ng/mL
AUC(0-t) at 24 h [20]: 6200 ng·h/mL
Ratio (Homo sapiens [21]): 0.093
Tmax [22]: 3.25 h
half-life [23]: 16.9 h
Ratio (Homo sapiens [25]): 0.092
half-life [29]: 17.7 h
Cmax [30]: 381 ng/mL
AUC(0-t) at 72 h [31]: 16400 ng·h/mL
half-life [32]: 16.9 h
Tmax [33]: 4 h
Tmax [35]: 4 h
AUC(0-t) [37]: 8940 ng·h/mL
Kp [38]: 20.3
SMILES: CC[C@H]1OC(=O)[C@H](C)C(=O)[C@H](C)[C@@H](O[C@@H]2O[C@H](C)C[C@H](N(C)C)[C@H]2O)[C@@]2(C)C[C@@H](C)/C(=N\C(C)=O)[C@H](C)[C@@H](OC/C(=N\OCc3ccc(-n4cccn4)nc3)CO2)[C@]1(C)O [MODITHROMYCIN]
Activity (Homo sapiens [3]): Non-toxic
Activity (Homo sapiens [16]): Non-toxic
Activity (Homo sapiens [19]): Non-toxic
Activity (Homo sapiens [24]): Non-toxic
Activity (Homo sapiens [26]): Non-toxic
Activity (Homo sapiens [27]): Non-toxic
Activity (Homo sapiens [28]): Non-toxic
Activity (Homo sapiens [34]): Non-toxic
Activity (Homo sapiens [36]): Non-toxic
